Patent US8648101B2, “Nematicidal agent composition and method of using the same” (Nihon Nohyaku Co., Ltd., priority 2007, dated 2014)

Legend:
[1] = test system: southern root-knot nematode (Meloidogyne incognita); experiment: Nematocidal test on the southern root-knot nematode, pot-grown melon seedlings; type: in vivo; set-up: key: A: no root knots.; B: root knots are present but their number is definitely smaller than that for untreated plot.; C: root knots are present in an equivalent number to or a larger number than that for untreated plot; details: 30 ppm emulsion dilution, 1 ml injected at foot of melon seedlings; 8 days after inoculation
Method: Nematocidal Test on the Southern Root-Knot Nematode (Meloidogyne incognita)
An emulsion comprising each compound listed in Table 1 as an active ingredient was prepared as directed in Preparation Example 1, and diluted to obtain active ingredient concentrations of 300 ppm and 30 ppm. Each of these dilutions (1 ml) was applied to the foots of pot-grown melon seedlings by injection; 1 day after application of the dilution, an aqueous suspension of southern root-knot nematodes (about 500 nematodes/ml) was inoculated (soil injection), to a treated plot and an untreated plot and the pots were placed in a 25° C. greenhouse. Eight days after the inoculation, the roots were washed with water and examined for the number of root knots, and the effects were determined according to the following rating criteria.
• A: no root knots. • B: root knots are present but their number is definitely smaller than that for untreated plot. • C: root knots are present in an equivalent number to or a larger number than that for untreated plot.

[2] = test system: soybean cyst nematode (Heterodera grycines); experiment: Nematocidal test on the soybean cyst nematode, treated soil with soybean; type: in vivo; set-up: key: A: no cysts.; B: cysts are present but their number is definitely smaller than that for untreated plot.; C: cysts are present in an equivalent number to or a larger number than that for untreated plot; details: 7.5 mg wettable powder (1.5 mg active ingredient per kg soil); 40 days after seeding
Method: Nematocidal Test on the Soybean Cyst Nematode (Heterodera grycines)
A wettable powder comprising each compound listed in Table 1 as an active ingredient was prepared as directed in Preparation Example 4, and 75 mg and 7.5 mg were weighed out so that the active ingredient content would be 15 mg and 1.5 mg per kg soil; these agents were mixed in soil (1000 g) contaminated with soybean cyst nematodes in a plastic bag. The treated soil was filled in pots, soybean seeds were sown, and the pots were placed in a glass greenhouse. Forty days after the seeding, the soil on the roots was put down, the number of cysts was examined, and the effect was determined according to the rating criteria shown below.
• A: no cysts. • B: cysts are present but their number is definitely smaller than that for untreated plot. • C: cysts are present in an equivalent number to or a larger number than that for untreated plot.

O=C(NCCc1ncc(C(F)(F)F)cc1Cl)c1ccccc1C(F)(F)F [Compound 7, N-[2-(3-chloro-5-trifluoromethylpyridin-2-yl)ethyl]-2-trifluoromethylbenzamide]
rating (number of root knots) [1]: A | rating (number of cysts) [2]: A
